According to PMC8477192, “An ionic lock and a hydrophobic zipper mediate the coupling between an insect pheromone receptor BmOR3 and downstream effectors” (The Journal of Biological Chemistry, 2021):

What was measured:
Assay type in all cases: cell-based
[1] = molecular target: T1, BmOR3 (Bombyx mori, UniProt Q5FBE0); assay: G protein recruitment BRET assay (Gi-Rluc to YFP-BmOR3); settings: HEK293 cells, 2 min stimulation
Procedure: Gi1-Rluc, Gi2-Rluc, and Gi3-Rluc plasmids were constructed according to previous report ([30]). HEK293 cells were transiently cotransfected with N-terminal YFP-tagged BmOR3 together with Gi-Rluc plasmids. Twenty-four hours after transfection, cells were distributed into a 96-well microplate. After another 24 h, the cells were stimulated with an increasing amount of bombykal for 2 min. The light emission of Rluc (485 nm) and YFP (530 nm) was measured after the addition of the Rluc substrate coelenterazine h (5 μM) using a Mithras LB 940 multimode reader (Berthold Technologies). The BRET signal was calculated as the ratio of emission of YFP to Rluc. The net BERT value was calculated by subtracting the BRET signal obtained in the cells transfected with Rluc-Gi plasmids only.

[2] = molecular target: T1, BmOR3; assay: Arrestin recruitment BRET assay; settings: HEK293 cells, 10 min stimulation
Procedure: HEK293 cells were transiently cotransfected with the N-terminal YFP-tagged BmOR3 together with N-terminal Rluc-fused β-arrestin-1, β-arrestin-2, or BmArr plasmids. Twenty-four hours after transfection, cells were distributed into a 96-well microplate and incubated for additional 24 h. The cells were stimulated with varying concentrations of bombykal for 10 min, and the BRET signal between YFP (530 nm) and Rluc (485 nm) was measured after the addition of the Rluc substrate coelenterazine h (5 μM) using a Mithras LB 940 multimode reader (Berthold Technologies). The BRET signal was calculated as the ratio of emission of YFP to Rluc.

[3] = molecular target: T2, BmOR3–BmOrco (Bombyx mori, UniProt Q5FBE0); assay: BmOR3–BmOrco intermolecular BRET assay; settings: HEK293 cells; 5 min stimulation; read-out: EC50 of BRET signal increase between Rluc-BmOR3 and YFP-BmOrco
T2 sequence (Q5FBE0 1-439): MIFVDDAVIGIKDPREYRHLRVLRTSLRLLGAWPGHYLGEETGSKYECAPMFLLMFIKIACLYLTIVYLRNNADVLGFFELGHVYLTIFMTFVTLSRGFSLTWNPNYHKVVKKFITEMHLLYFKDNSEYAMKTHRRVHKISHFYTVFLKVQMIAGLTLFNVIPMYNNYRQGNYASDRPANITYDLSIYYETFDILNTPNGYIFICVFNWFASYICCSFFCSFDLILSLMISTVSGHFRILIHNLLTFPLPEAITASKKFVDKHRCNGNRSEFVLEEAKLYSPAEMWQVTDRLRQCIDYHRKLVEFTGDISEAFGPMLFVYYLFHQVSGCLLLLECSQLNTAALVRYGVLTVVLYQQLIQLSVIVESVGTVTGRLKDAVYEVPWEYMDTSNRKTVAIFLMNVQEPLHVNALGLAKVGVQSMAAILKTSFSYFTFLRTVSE
T2 sequence (Q7YT34 1-472 partner): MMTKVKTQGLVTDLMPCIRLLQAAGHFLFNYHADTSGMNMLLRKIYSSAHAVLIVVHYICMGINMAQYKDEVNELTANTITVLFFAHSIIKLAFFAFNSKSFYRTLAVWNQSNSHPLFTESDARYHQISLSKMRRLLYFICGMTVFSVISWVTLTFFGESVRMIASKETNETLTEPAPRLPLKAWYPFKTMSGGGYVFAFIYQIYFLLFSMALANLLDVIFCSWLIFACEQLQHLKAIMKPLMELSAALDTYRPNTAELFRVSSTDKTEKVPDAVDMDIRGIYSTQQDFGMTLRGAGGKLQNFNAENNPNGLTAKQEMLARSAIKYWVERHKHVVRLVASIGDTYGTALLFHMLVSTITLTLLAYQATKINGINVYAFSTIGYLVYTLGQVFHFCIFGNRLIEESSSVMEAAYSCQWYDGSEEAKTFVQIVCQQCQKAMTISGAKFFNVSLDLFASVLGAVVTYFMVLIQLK
Procedure: HEK293 cells were cotransfected with the N-terminal Rluc-tagged WT BmOR3 together with N-terminal YFP-fused BmOrco plasmids or their mutants. Twenty-four hours after transfection, cells were distributed into a 96-well microplate. After another 24 h, the cells were stimulated with different concentrations of bombykal for 5 min. BRET between RLuc and YFP was measured using a Mithras LB 940 multimode reader after the addition of the RLuc substrate coelenterazine h (5 μM). The BRET signal was calculated as the ratio of emission of YFP (530 nm) to RLuc (485 nm). For the saturation BRET between Rluc-BmOrco and YFP-BmOR3, HEK293 cells were transfected with a fixed amount of Rluc-BmOrco and increasing amounts of YFP-BmOR3. The BRET signal between RLuc and YFP was directly measured after the addition of the substrate coelenterazine h (5 μM).

[4] = molecular target: T1, BmOR3; assay: BRET-based internalization assay (Rluc-BmOR3 / Lyn-YFP); settings: HEK293 cells; 1 μM, 20 min
Procedure: BRET-based internalization assay was performed as previously described ([57]). Briefly, HEK293 cells treated with Ctrl or β-arrestin-1/2 siRNA, or pretransfected with BmArr, were transiently transfected with N-terminal Rluc-fused BmOR3 and plasma membrane marker Lyn-YFP. Twenty-four hours after transfection, the cells were detached and distributed into a 96-well microplate. After another 24-h incubation at 37 °C, the cells were stimulated with vehicle or 1 μM bombykal at 37 °C for 20 min. Rluc substrate coelenterazine h was added at a final concentration of 5 μM before light emissions of YFP and Rluc were recorded using a Mithras LB 940 microplate reader (Berthold Technologies). The BRET signal was calculated as the ratio of emission of YFP to Rluc.

## CCC/C=C\C=C\CCCCCCCCC=O [bombykal]
[1]; Gi1, read-out: EC50 of coupling of Rluc-tagged Gi1 to YFP-fused BmOR3
  EC50: 11.7 ± 1.19 nM
[1]; Gi2, read-out: EC50 of coupling of Rluc-tagged Gi2 to YFP-fused BmOR3
  EC50: 22 ± 3.22 nM
[1]; Gi3, read-out: EC50 of coupling of Rluc-tagged Gi3 to YFP-fused BmOR3
  EC50: 10.6 ± 2.06 nM
[2]; BmArr1, read-out: potency of recruitment of BmArr1 to BmOR3 (concentration-dependent)
  EC50: 90 ± 11.1 nM
[2]; β-arrestin-2, read-out: potency of recruitment of β-arrestin-2 to BmOR3 (concentration-dependent)
  EC50: 151 ± 21.3 nM
[3]
  EC50: 36 ± 3.89 nM
[4]
  BmOR3 internalization (BRET signal between Rluc-BmOR3 and Lyn-YFP): significant decrease in the BRET signal
